Experimental findings from patent publication US5164381A, “Pharmacologically active 1,5-diaryl-3-substituted pyrazoles and method for synthesizing the same” (Ortho Pharmaceutical Corporation, priority 1991, dated 1992) are described below.

SMILES strings stand for the structures.

One experiment deals with Lewis strain laboratory rats. Nature of the experiment: In vivo alleviation of inflammation: polyarthritis (adjuvant, Mycobacterium butyricum) in rats, inhibition of paw volume increase. The note with it: Rattus norvegicus, po, rat; read-out: ED50 (effective dose to obtain a 50% inhibition of inflammation). How it is done: Polyarthritis was induced in Lewis strain laboratory rats (weight=about 200 grams) by injection of a suspension of Mycobacterium butyricum in mineral oil into the subplantar tissue of the mammal's hind paws. On day 10 after the injection, the rats were assigned to groups, and paw volumes and body weights were recorded. Paw volumes of the contralateral, uninjected hind paw were determined by mercury plethylsmography. Per oral (p.o.) dosing began and continued for five consecutive days thereafter. On day 14 after the initial injection, approximately four hours after the final dose was administered, paw volumes and body weights were recorded and quantitated.
Anti-inflammatory activity of the substituted pyrazole compounds is expressed as the percent inhibition of paw volume increase.
The term ED50 denotes the dose at which the effect has come halfway, by size or by number of responders. With `COc1ccc(-n2nc(CCC=O)cc2-c2ccc(Cl)cc2)cc1` [Compound 11, 3-[5-(4-Chlorophenyl)-1-(4-methoxyphenyl)-3-pyrazolyl] propanal], the ED50 is 2.6 mg/kg.
Take `COc1ccc(-n2nc(CCC(=O)N(C)O)cc2-c2ccc(C(F)(F)F)cc2)cc1` [Compound 79]: the ED50 worked out at 3.2 mg/kg.
For `COc1ccc(-n2nc(CCCN(O)C(=O)C(=O)NO)cc2-c2ccc(Cl)cc2)cc1` [Compound 158, N-[3-[5-(4-Chlorophenyl)-1-(4-methoxyphenyl)-3-pyrazolyl]propyl]-N,N'-dihydroxyoxamide], the 50% effective dose (ED50) was determined as 33.4 mg/kg.
As to `COc1ccc(-n2nc(CCCO)cc2-c2ccc(C)cc2)cc1` [Compound 55, 3-(3-hydroxypropyl)-1-(4-methoxyphenyl)-5-(4-tolyl)pyrazole], the ED50 stood at 3.9 mg/kg.
Still for that read-out and setting: the same measure for `COc1ccc(-n2nc(CCCO)cc2-c2ccc(Cl)cc2)cc1` [Compound 2, 5-(4-Chlorophenyl)-3-(3-hydroxypropyl)-1-(4-methoxyphenyl) pyrazole]: 3.6 mg/kg.
Turning to `COc1ccc(-n2nc(CCCO)cc2-c2ccc(C(F)(F)F)cc2)cc1` [Compound 56, 5-(4-trifluoromethylphenyl)-3-(3-hydroxypropyl)-1-(4-methoxyphenyl) pyrazole], the ED50 is 3 mg/kg.

Still in this experiment, the particulars now being: po, 336 h; 10 mpk p.o., rat; read-out: % INH. p.o. (percentage inhibition of pad swelling).
On to `COc1ccc(-n2nc(CCC(=O)N(O)C(C)C(=O)O)cc2-c2ccc(Cl)cc2)cc1` (stereo not drawn) [Compound 145], for which the inhibition in vivo at 10 mg/kg was 61%.
Consider `COc1ccc(-n2nc(CCCN(O)C(=O)C(C)(C)C)cc2-c2ccc(Cl)cc2)cc1` [Compound 153], for which the inhibition in vivo at 10 mg/kg worked out at 49%.
Turning to `COc1ccc(-n2nc(CCC(=O)N(C)OC(=O)CCCC(=O)O)cc2-c2ccc(Cl)cc2)cc1` [Compound 132], the inhibition in vivo at 10 mg/kg is 30%.
`COc1ccc(-n2nc(CCC(=O)N(O)C(C)=O)cc2-c2ccc(Cl)cc2)cc1` [Compound 171, N-Acetyl-3-[5-(4-chlorophenyl)-1-(4-methoxyphenyl)-3-pyrazolyl]-N-hydroxy-propanamide]: the inhibition in vivo at 10 mg/kg is 62%.
In the case of `CCc1ccc(-c2cc(CCC(=O)N(C)O)nn2-c2ccc(OC)cc2)cc1` [Compound 119], the inhibition in vivo at 10 mg/kg amounted to 24%.
As for `COc1ccccc1-n1nc(CCC(=O)O)cc1-c1ccc(Cl)cc1` [Compound 103], the inhibition in vivo at 10 mg/kg turned out to be 55%.
For the molecule `COc1ccc(-n2nc(CCC(=O)O)cc2-c2ccc(C)c(C)c2)cc1` [Compound 107], the inhibition in vivo at 10 mg/kg stood at 30%.
On the same count and under the same terms, the same measure for `COc1ccc(-n2nc(CCC(=O)N(C)OC(=O)C(C)(C)C)cc2-c2ccc(Cl)cc2)cc1` [Compound 141]: 17%; for `COc1ccc(-n2nc(CCC(=O)O)cc2-c2cccc(C)c2)cc1` [Compound 106]: 11%; for `COCC(=O)ON(C)C(=O)CCc1cc(-c2ccc(Cl)cc2)n(-c2ccc(OC)cc2)n1` [Compound 142]: 67%.

Staying with this experiment, now noted: po, 336 h; 15 mpk p.o., rat; read-out: % INH. p.o. (percentage inhibition of pad swelling).
Turning to `COc1ccc(-n2nc(CCC(O)c3ccccc3)cc2-c2ccc(Cl)cc2)cc1` (stereo not drawn) [Compound 178], the inhibition in vivo at 15 mg/kg stood at 8%.
On the same count and under the same terms, to `CCOC(=O)C(CS)NC(=O)CCc1cc(-c2ccc(Cl)cc2)n(-c2ccc(OC)cc2)n1` (stereo not drawn) [Compound 100] belongs 58%.
As for `CCOc1ccc(-n2nc(CCC(=O)N(C)O)cc2-c2ccc(Cl)cc2)cc1` [Compound 76], the inhibition in vivo at 15 mg/kg came out at 43%.
Take `COc1ccc(-n2nc(CCC(=O)N(C)O)cc2-c2ccc(C)cc2)cc1` [Compound 111]: the inhibition in vivo at 15 mg/kg came to 75%.
As for `COc1ccc(-n2nc(CCC(=O)N(OC(C)=O)C(C)=O)cc2-c2ccc(Cl)cc2)cc1` [Compound 172, N-Acetyl-N-acetoxy-[5-(4-chlorophenyl)-1-(4-methoxyphenyl)-3-pyrazolyl]-propanamide], the inhibition in vivo at 15 mg/kg is 83%.
Turning to `CCOc1ccc(-n2nc(CCC(=O)O)cc2-c2ccc(Cl)cc2)cc1` [Compound 72], the inhibition in vivo at 15 mg/kg came out at 71%.
The same measure, in the same setting: the same measure for `COc1ccc(-n2nc(CCC(=O)N(C)OC(C)=O)cc2-c2ccc(Cl)cc2)cc1` [Compound 140]: 77%; for `COc1ccc(-n2nc(CCC(C)=NNc3nccs3)cc2-c2ccc(Cl)cc2)cc1` [Compound 173, 5-(4-Chlorophenyl)-1-(4-methoxyphenyl)-3-(3-oxobutyl)pyrazole thiazol-2-yl hydrazone]: 39%.
With `COc1ccc(-n2nc(CCNC(=O)C(=O)N(C)O)cc2-c2ccc(Cl)cc2)cc1` [Compound 163], the inhibition in vivo at 15 mg/kg stood at 28%.
Same read-out and setting: the same measure for `COc1ccc(-n2nc(CCNC(=O)C(=O)NO)cc2-c2ccc(Cl)cc2)cc1` [Compound 165]: 41%.
Regarding `CCOC(=O)C(CSC)NC(=O)CCc1cc(-c2ccc(Cl)cc2)n(-c2ccc(OC)cc2)n1` (stereo not drawn) [Compound 101], the inhibition in vivo at 15 mg/kg was 57%.
Turning to `COc1ccc(-n2nc(CCC(=O)N(C)O)c(Cl)c2-c2ccc(Cl)cc2)cc1` [Compound 149], the inhibition in vivo at 15 mg/kg was 68%.
On to `Nc1ccc(-n2nc(CCCO)cc2-c2ccc(Cl)cc2)cc1` [Compound 69], for which the inhibition in vivo at 15 mg/kg is 17%.
Turning to `COc1ccc(-n2nc(CCC(=O)c3ccccc3)cc2-c2ccc(Cl)cc2)cc1` [Compound 181], the inhibition in vivo at 15 mg/kg stood at 30%.

The same experiment, now with this note: po, 336 h; 20 mpk p.o., rat; read-out: % INH. p.o. (percentage inhibition of pad swelling).
`COc1ccc(-n2nc(CCCOC(=O)CC(C)=O)cc2-c2ccc(Cl)cc2)cc1` [Compound 59, 3-(3-Acetoacetoxypropyl)-5-(4-chlorophenyl)-1-(4-methoxyphenyl) pyrazole]: the inhibition in vivo at 20 mg/kg was found to be 48%.

Staying with this experiment, now noted: po, 336 h; 25 mpk p.o., rat; read-out: % INH. p.o. (percentage inhibition of pad swelling).
Regarding `CCN(CC)C(=O)CCc1cc(-c2ccc(Cl)cc2)n(-c2ccc(OC)cc2)n1` [Compound 28, 3-[5-(4-Chlorophenyl)-1-(4-methoxyphenyl)-3-pyrazolyl]-N,N-diethylpropanamide], the inhibition in vivo at 25 mg/kg came out at 44%.
As for `COc1ccc(-n2nc(CCC=NO)cc2-c2ccc(Cl)cc2)cc1` [Compound 26, 5-(4-Chlorophenyl)-3-(3-oximinopropyl)-1-(4-methoxyphenyl) pyrazole], the inhibition in vivo at 25 mg/kg came out at 79%.
In the case of `COc1ccc(-n2nc(CC/C=C\CCCC(=O)O)cc2-c2ccc(Cl)cc2)cc1` [Compound 32, Sodium 8-[5-(4-Chlorophenyl)-1-(4-methoxyphenyl)-3-pyrazolyl]-5(Z)-octenoate], the inhibition in vivo at 25 mg/kg stood at 69%.
`CSc1ccc(-n2nc(CCCO)cc2-c2ccc(Cl)cc2)cc1` [Compound 47]: the inhibition in vivo at 25 mg/kg was determined as 48%.
`COc1ccc(-n2nc(CCC(=O)NCC(=O)O)cc2-c2ccc(Cl)cc2)cc1` [Compound 66, N-Carboxymethyl-3-[5-(4-chlorophenyl)-1-(4-methoxyphenyl)-3-pyrazolyl]propanamide]: the inhibition in vivo at 25 mg/kg came out at 62%.
For `COc1ccc(-n2nc(CCC(=O)N(C)O)cc2-c2ccc(F)cc2)cc1` [Compound 45, 3-[5-(4-Fluorophenyl)-1-(4-methoxyphenyl)-3-pyrazolyl]-N-hydroxy-N-methyl propanamide], the inhibition in vivo at 25 mg/kg came out at 51%.
On to `COc1ccc(-n2nc(CCC(N)=O)cc2-c2ccc(Cl)cc2)cc1` [Compound 31], for which the inhibition in vivo at 25 mg/kg came out at 75%.
Still for that read-out and setting: to `COc1ccc(-n2nc(CCC(=O)N(O)C(C)(C)C)cc2-c2ccc(Cl)cc2)cc1` [Compound 58, 3-[5-(4-chlorophenyl)-1-(4-methoxyphenyl)-3-pyrazolyl]-N-tert-butyl-N-hydroxypropanamide] belongs 47%.

Still in this experiment, the particulars now being: po, 336 h; 30 mpk p.o., rat; read-out: % INH. p.o. (percentage inhibition of pad swelling).
For the molecule `COc1ccc(-n2nc(CCCN)cc2-c2ccc(Cl)cc2)cc1` [Compound 96, 3-[5-(4-Chlorophenyl)-1-(4-methoxyphenyl)-3-pyrazolyl]propylamine], the inhibition in vivo at 30 mg/kg stood at 56%.

The same experiment, now with this note: po, 336 h; 40 mpk p.o., rat; read-out: % INH. p.o. (percentage inhibition of pad swelling).
For `COc1ccc(-n2nc(CCC(=O)O)cc2-c2ccc(Cl)cc2)cc1OC` [Compound 74], the inhibition in vivo at 40 mg/kg turned out to be 17%.
Regarding `COC(=O)CCc1cc(-c2ccc(Cl)cc2)n(-c2ccc(OC)cc2)n1` [Compound 19, Methyl 3-[5-(4-chlorophenyl)-1-(4-methoxyphenyl)-3-pyrazolyl] propionate], the inhibition in vivo at 40 mg/kg amounted to 69%.
On to `CN(O)C(=O)CCc1cc(-c2ccc(Cl)cc2)n(-c2ccccc2)n1` [Compound 67, 3-[5-(4-Chlorophenyl)-1-phenyl-3-pyrazolyl]-N-hydroxy-N-methyl propanamide], for which the inhibition in vivo at 40 mg/kg amounted to 30%.
On the same count and under the same terms, to `CNOC(=O)CCc1cc(-c2ccc(Cl)cc2)n(-c2ccc(OC)cc2)n1` [Compound 53, 0-[2-[5-(4-Chlorophenyl)-1-(4-methoxyphenyl)-3-pyrazolyl]ethyl-carbonyl]-N-methylhydroxylamine] belongs 94%; to `COc1ccc(-n2nc(CCC(=O)N(O)c3ccccc3)cc2-c2ccc(Cl)cc2)cc1` [Compound 84, 3-[5-(4-chlorophenyl)-1-(4-methoxyphenyl)-3-pyrazolyl]-N-hydroxy-N-phenylpropanamide], 27%; to `COc1ccc(-n2nc(CCC(=O)N(C)O)c(Br)c2-c2ccc(Cl)cc2)cc1` [Compound 148], 15%.
Take `CCOC(=O)CCc1cc(-c2ccc(Cl)cc2)n(-c2ccc(OCC)cc2)n1` [Compound 75]: the inhibition in vivo at 40 mg/kg was 73%.

Staying with this experiment, now noted: po, 336 h; 50 mpk p.o., rat; read-out: % INH. p.o. (percentage inhibition of pad swelling).
On to `OCCCc1cc(-c2ccc(Cl)cc2)n(-c2ccc(Cl)c(Cl)c2)n1` [Compound 8], for which the inhibition in vivo at 50 mg/kg amounted to 41%.
